Consider 82 compounds from article PMC12040169 (PLOS Biology, 2025).

This series can be described thus: in vitro. The note with it: human, hela cells, % viability.
Turning to `O=C(C1CCC1)N1CCC(c2nnc3n2CCCCC3)CC1` [CBK284625], the viability at 28.5 h, 10 µM stood at 103%.

As to `O=C(c1ccccc1F)N1CCC(c2nnc3n2CCCCC3)CC1` [CBK284628], the viability at 28.5 h, 10 µM was found to be 82.2%.

For the compound `CC(C)CC(=O)N1CCC(c2nnc3n2CCCCC3)CC1` [CBK284629], the viability at 28.5 h, 10 µM is 83.2%.

With `O=C(NCc1nnc(-c2cccs2)o1)c1cccc(Cl)c1` [CBK284633], the viability at 28.5 h, 10 µM worked out at 95.6%.

With `O=C(NCc1nnc(-c2cccs2)o1)c1cccc(F)c1F` [CBK284634], the viability at 28.5 h, 10 µM turned out to be 91.1%.

`O=C(NCc1nnc(-c2cccs2)o1)c1cccc2ccccc12` [CBK284636]: the viability at 28.5 h, 10 µM was 82.1%.

As to `O=C(NCc1nnc(-c2cccs2)o1)C1(c2ccccc2F)CC1` [CBK284637], the viability at 28.5 h, 10 µM was 83.2%.

Turning to `O=C(NCc1nnc(-c2cccs2)o1)C1(c2ccc(F)cc2)CC1` [CBK284638], the viability at 28.5 h, 10 µM was 74.4%.

Turning to `O=C(NCc1nnc(-c2cccs2)o1)C1(c2cccc(F)c2)CC1` [CBK284639], the viability at 28.5 h, 10 µM came to 90.2%.

`Cc1ccc(-c2nnc(CNC(=O)C3(c4ccccc4)CC3)o2)s1` [CBK284642]: the viability at 28.5 h, 10 µM was determined as 95.9%.

With `O=C(Cc1ccccc1Cl)NCc1nnc(-c2cccs2)o1` [CBK284643], the viability at 28.5 h, 10 µM amounted to 96.4%.

With `Cc1ccc(-c2nnc(CNC(=O)Cc3ccccc3F)o2)s1` [CBK284644], the viability at 28.5 h, 10 µM was found to be 78.4%.

In the case of `Cc1ccc(-c2nnc(CNC(=O)Cc3ccc(F)cc3)o2)s1` [CBK284645], the viability at 28.5 h, 10 µM came to 91.3%.

`Cc1ccc(-c2nnc(CNC(=O)Cc3ccccc3Cl)o2)s1` [CBK284648]: the viability at 28.5 h, 10 µM turned out to be 85.2%.

As for `Nc1ccc([C@@H]2CN(Cc3ccccc3)C[C@]23CCCC(=O)N3)cc1` [CBK284649], the viability at 28.5 h, 10 µM was found to be 97.5%.

For `O=C(C1CC1)N1CC(n2nc(-c3cccs3)ccc2=O)C1` [CBK284650], the viability at 28.5 h, 10 µM is 85.1%.

Take `O=C(C1CC1)N1C2CCC1CC(O)(Cn1ccc3ccncc31)C2` (stereo not shown) [CBK284652]: the viability at 28.5 h, 10 µM was 90.4%.

Take `CC1CC1C(=O)N1C2CCC1CC(O)(Cn1ccc3ccncc31)C2` (stereo not shown) [CBK284653]: the viability at 28.5 h, 10 µM came out at 85.6%.

In the case of `COC1CCCC(C(=O)NC(Cc2ccsc2)c2cccnc2)C1` (stereo not shown) [CBK284654], the viability at 28.5 h, 10 µM was determined as 84.4%.

In the case of `CCCC(=O)N1CCC(c2nc3ccc(F)cc3cc2N)CC1` [CBK284655], the viability at 28.5 h, 10 µM came out at 92.1%.

For `Nc1cc2cc(F)ccc2nc1C1CCN(C(=O)C2CC2)CC1` [CBK284657], the viability at 28.5 h, 10 µM was found to be 93.4%.

Regarding `CC(C)(C)OC(=O)N1CCC(c2nc3ccc(F)cc3cc2N)CC1` [CBK284658], the viability at 28.5 h, 10 µM was 88.9%.

For `Cc1nccn1CC1(O)CCN(C(=O)C2(c3ccccc3)CC2)CC1` [CBK284659], the viability at 28.5 h, 10 µM was 94.6%.

`Cc1ccc(C(C)C(=O)N2CCC(O)(Cn3ccnc3C)CC2)cc1` (stereo not shown) [CBK284660]: the viability at 28.5 h, 10 µM came to 83.8%.

Regarding `OC1(Cn2cnc3ccccc32)CCN(Cc2ccccc2F)CC1` [CBK284662], the viability at 28.5 h, 10 µM came out at 85.3%.

Consider `OC1(Cn2cnc3ccccc32)CCN(Cc2cccc(F)c2)CC1` [CBK284663], for which the viability at 28.5 h, 10 µM was found to be 94.9%.

Turning to `O=C(Cn1cccn1)NC(Cc1ccsc1)c1nccs1` (stereo not shown) [CBK284666], the viability at 28.5 h, 10 µM is 94%.

Take `CC(C)n1cc(C(=O)N2CCCC2c2nc3ccccc3[nH]2)cn1` (stereo not shown) [CBK284667]: the viability at 28.5 h, 10 µM came to 108%.

On to `Cc1cc(C2CCCCCN2S(=O)(=O)c2ccc(F)cc2)on1` (stereo not shown) [CBK284668], for which the viability at 28.5 h, 10 µM turned out to be 82.2%.

`CS(=O)(=O)N1CCCCCC1c1cc(-c2ccc(F)cc2)no1` (stereo not shown) [CBK284669]: the viability at 28.5 h, 10 µM is 91.8%.

Turning to `CS(=O)(=O)N1CCCCCC1c1cc(-c2cccs2)on1` (stereo not shown) [CBK284670], the viability at 28.5 h, 10 µM was 85.5%.

With `CC(=O)Nc1ccc(C#CC2(NC(=O)C3CC3)CCCCC2)cn1` [CBK284676], the viability at 28.5 h, 10 µM stood at 87.4%.

For `O=C(Cn1cccc2cc(C3CCNCC3)nc1-2)N1CCCCCC1` [CBK284679], the viability at 28.5 h, 10 µM amounted to 95.6%.

On to `O=C(Cn1cccc2cc(C3CCNCC3)nc1-2)N1CCCC1` [CBK284680], for which the viability at 28.5 h, 10 µM was found to be 98%.

As to `CCC(C)NC(=O)Cn1cccc2cc(C3CCNCC3)nc1-2` (stereo not shown) [CBK284681], the viability at 28.5 h, 10 µM worked out at 110%.

As to `Cc1cnc2[nH]c(C3CCN(C(=O)c4cnn(C)c4C)CC3)cc2c1` [CBK284684], the viability at 28.5 h, 10 µM turned out to be 88.8%.

For the compound `Cc1cc(C(F)(F)F)n2nc(C3CCCN3C(=O)C(C)C)cc2n1` (stereo not shown) [CBK284685], the viability at 28.5 h, 10 µM was determined as 93%.

Consider `CC1CCCN(Cc2c(C3CCOCC3)[nH]c3ncccc23)C1` (stereo not shown) [CBK284687], for which the viability at 28.5 h, 10 µM was determined as 97%.

As for `Cc1nccn1CC1(O)CCN(C(=O)CCc2ccccc2F)CC1` [CBK284689], the viability at 28.5 h, 10 µM was 96.6%.

As to `CN1C(=O)c2ccccc2C(=O)[C@@]2(C)CN(Cc3ccccc3)C[C@@H]12` [CBK284692], the viability at 28.5 h, 10 µM is 95.1%.

`Cn1cnc2cc(NCc3cc(-c4ccc(F)cc4)c[nH]c3=O)ccc21` [CBK284693]: the viability at 28.5 h, 10 µM came out at 50.7%.

As for `O=c1[nH]cc(-c2ccc(F)cc2)cc1CNCc1ccc(F)cc1` [CBK284695], the viability at 28.5 h, 10 µM amounted to 96.1%.

Take `O=c1[nH]cc(-c2ccc(F)cc2)cc1CNCc1cccc(F)c1` [CBK284697]: the viability at 28.5 h, 10 µM stood at 94.6%.

With `CCn1ncc(CN2CCCC(c3cc4cccnc4[nH]3)C2)c1C` (stereo not shown) [CBK284700], the viability at 28.5 h, 10 µM was 96.9%.

With `CCn1cc(CN2CCCC(c3cc4cccnc4[nH]3)C2)c(C)n1` (stereo not shown) [CBK284701], the viability at 28.5 h, 10 µM was 89.2%.

On to `C[C@]12CN(Cc3cccs3)C[C@H]1NC(=O)c1ccccc1C2=O` [CBK284702], for which the viability at 28.5 h, 10 µM was 89.2%.

`C[C@]12CN(Cc3ccccc3)C[C@H]1NC(=O)c1ccccc1C2=O` [CBK284703]: the viability at 28.5 h, 10 µM came to 96.5%.

Consider `C[C@]12CN(Cc3cccs3)C[C@H]1C(=O)Nc1ccccc1C(=O)N2` [CBK284705], for which the viability at 28.5 h, 10 µM was found to be 98.2%.

`O=C(Cn1c(=O)n(Cc2ccco2)c2ncccc21)N1CCCC1` [CBK284708]: the viability at 28.5 h, 10 µM was found to be 88.9%.

With `COC(=O)C1(Cc2ccccc2-c2ccncc2)CCOCC1` [CBK284709], the viability at 28.5 h, 10 µM is 95.2%.

On to `CC(C)(C)OC(=O)N1CCCC(c2nc3ccccc3cc2N)C1` (stereo not shown) [CBK284711], for which the viability at 28.5 h, 10 µM stood at 96.7%.

Take `O=C(Cn1nc(-c2cc3c(s2)CCC3)oc1=O)N1CCCC1` [CBK284712]: the viability at 28.5 h, 10 µM was 90.3%.

`CN(C)C(=O)Cn1nc(-c2cc3c(s2)CCC3)oc1=O` [CBK284715]: the viability at 28.5 h, 10 µM amounted to 99%.

For `COc1ccc2cnc(C3CCCN(C(=O)C4CC4)C3)cc2c1C` (stereo not shown) [CBK284716], the viability at 28.5 h, 10 µM amounted to 90.8%.

`O=C(NC1CCN(C(=O)CCn2ccc3ccncc32)CC1)C1CC1` [CBK284718]: the viability at 28.5 h, 10 µM was found to be 78.3%.

As to `CCOC(=O)C1CCN(C(=O)CCn2ccc3ccncc32)CC1` [CBK284720], the viability at 28.5 h, 10 µM worked out at 84.2%.

As to `CCCC(=O)N1CCCC([C@@H]2C[C@H](C(F)F)n3nc(C)cc3N2)C1` (stereo partly shown) [CBK284721], the viability at 28.5 h, 10 µM was determined as 93.2%.

As for `Cc1cc2n(n1)[C@@H](C(F)F)C[C@@H](C1CCCN(C(=O)C(C)C)C1)N2` (stereo partly shown) [CBK284722], the viability at 28.5 h, 10 µM was determined as 96.1%.

As for `Cc1cc2n(n1)[C@@H](C(F)F)C[C@@H](C1CCCN(C(=O)C3CC3)C1)N2` (stereo partly shown) [CBK284723], the viability at 28.5 h, 10 µM was 98.7%.

Take `O=C(Cn1ccc2ccnc(-c3cccs3)c21)N1CCOCC1` [CBK284729]: the viability at 28.5 h, 10 µM is 94.2%.

Turning to `CC(C)C(=O)NC1CCN(C(=O)CCn2ccc3ccncc32)CC1` [CBK284730], the viability at 28.5 h, 10 µM is 98%.

Consider `CC(C)NC(=O)Cn1ccc2ccnc(-c3cccs3)c21` [CBK284732], for which the viability at 28.5 h, 10 µM was determined as 91.3%.

As to `O=C(Cn1ccc2ccnc(-c3cccs3)c21)N1CCNCC1` [CBK284733], the viability at 28.5 h, 10 µM amounted to 90.9%.

Consider `O=C(Cn1ccc2ccnc(-c3cccs3)c21)NCc1ccccn1` [CBK284735], for which the viability at 28.5 h, 10 µM amounted to 95.9%.

For `Cn1cc(C2CCCCCN2S(=O)(=O)c2ccc(F)cc2)cn1` (stereo not shown) [CBK284739], the viability at 28.5 h, 10 µM was 91.7%.

`Cn1cc(NC(=O)CCn2c(C(F)F)cc3cccnc32)cn1` [CBK284740]: the viability at 28.5 h, 10 µM came to 90.2%.

With `Cc1cnc2[nH]c(C3CC3)c(CN3CC(C)OC(C)C3)c2c1` (stereo not shown) [CBK284741], the viability at 28.5 h, 10 µM was 91.8%.

With `Cc1cnc2[nH]c(C(C)C)c(CN3CCCOCC3)c2c1` [CBK284742], the viability at 28.5 h, 10 µM was found to be 90.7%.

In the case of `CCCC(=O)N1CCC(c2nc3ccccn3c2NC(C)(C)C)CC1` [CBK284744], the viability at 28.5 h, 10 µM was 81.9%.

Consider `CCS(=O)(=O)N1CCC2(C=Cc3cc(F)ccc3O2)CC1` [CBK284747], for which the viability at 28.5 h, 10 µM came out at 104%.

In the case of `CC(C)(C)c1cc(C(=O)N2CCn3cc(C(F)(F)F)nc3C2)[nH]n1` [CBK284748], the viability at 28.5 h, 10 µM was determined as 87.7%.

`OC1(Cn2ccc3ncccc32)CCN(Cc2ccccc2F)CC1` [CBK284752]: the viability at 28.5 h, 10 µM came out at 93.3%.

Turning to `Cc1cnc2[nH]c(C3CCN(C(=O)c4scnc4C)CC3)cc2c1` [CBK284753], the viability at 28.5 h, 10 µM stood at 96.7%.

Consider `Cc1cnc2c(c1)cc(C1CCOCC1)n2CC(=O)N(C)C` [CBK284754], for which the viability at 28.5 h, 10 µM came to 102%.

Take `Cc1cnc2c(c1)cc(C1CCOCC1)n2CC(=O)NC1CCCC1` [CBK284755]: the viability at 28.5 h, 10 µM was 103%.

In the case of `Cc1occc1-c1nn(C2CCNCC2)c(=O)o1` [CBK284757], the viability at 28.5 h, 10 µM turned out to be 98.5%.

`Cc1cnc2[nH]c(C(C)C)c(CN(C)C)c2c1` [CBK284758]: the viability at 28.5 h, 10 µM came out at 100%.

With `O=C(CCn1ccc2ccncc21)NCCc1c[nH]c2ccccc12` [CBK284760], the viability at 28.5 h, 10 µM stood at 99%.

Consider `CC(C)NC(=O)[C@@H]1CN(C)C[C@]12CCc1ccccc1C2=O` [CBK284764], for which the viability at 28.5 h, 10 µM amounted to 93.8%.

Turning to `Cc1cnc2[nH]c(C(F)(F)F)c(CN3CCOCC3)c2c1` [CBK284766], the viability at 28.5 h, 10 µM came to 85.7%.

For the compound `Cc1cnc2[nH]c(C(F)(F)F)c(CN3CCSCC3)c2c1` [CBK284767], the viability at 28.5 h, 10 µM amounted to 90%.

`CC(=O)N1CCN(Cc2c(C(F)(F)F)[nH]c3ncc(C)cc23)CC1` [CBK284768]: the viability at 28.5 h, 10 µM worked out at 93.1%.
